Results published in patent publication US20230126310A1 (priority 2020, published 2023).
Counter-ions that a name gives are not always drawn.

Each compound was assayed on SARS-CoV-2 (assay: microbe, parasite or virus in culture). Details: Severe acute respiratory syndrome coronavirus 2, Caco-2, 48 h.

First: COC(=O)C1=C(C)NC(C)=C(C(=O)O[C@H]2CCN(Cc3ccccc3)C2)[C@H]1c1cccc([N+](=O)[O-])c1 [Barnidipine HCl]
Second: Cc1c(O)cccc1C(=O)N[C@@H](CSc1ccccc1)[C@H](O)CN1C[C@H]2CCCC[C@H]2C[C@H]1C(=O)NC(C)(C)C [Nelfinavir Mesylate]
The IC50 of the first is 9.2-fold higher: 24.3 µM for the first, 2.65 µM for the second.

Compared with `O=C(NCc1ccncc1)C12CC3CC(C1)CC(c1ccc(Cl)cc1)(C3)C2` [ABC294640], `C[C@]1(O)C[C@@H](c2nc(-c3ccc4ccc(-c5ccccc5)nc4c3)c3c(N)nccn32)C1` [OSI-906 (Linsitinib), Linsitinib] is 1.5-fold lower in IC50: 38.2 µM for the first, 24.9 µM for the second.

Same assay, conditions: Severe acute respiratory syndrome coronavirus 2, Caco-2, 48 h, read-out: % Inh. (% Inhibition of SARS-CoV-2)

Going from `[H]/N=C(\N/C(=N/[H])NCCCCCCNC(=N)NC(=N)Nc1ccc(Cl)cc1)Nc1ccc(Cl)cc1` [CHLORHEXIDINE DIHYDROCHLORIDE] to `COc1cc2nccc(Oc3ccc(NC(=O)C4(C(=O)Nc5ccc(F)cc5)CC4)cc3)c2cc1OC` [cabozantinib], the inhibition at 10 µM falls from 86.4% to 57.5%.

Compared with `O=C(/C=C/c1cccnc1)NCCCCC1CCN(C(=O)c2ccccc2)CC1` [FK-866], `c1ccc(OCc2ccc(CCCN3CCOCC3)cc2)cc1` [Fomocain] is higher in inhibition at 10 µM: 50.9% for the first, 61.1% for the second.

Compared with `O=C(NC1CCN(CCCCC2(C(=O)NCC(F)(F)F)c3ccccc3-c3ccccc32)CC1)c1ccccc1-c1ccc(C(F)(F)F)cc1` [Lomitapide], `CN(C)CC[C@H](CSc1ccccc1)Nc1ccc(S(=O)(=O)NC(=O)c2ccc(N3CCN(Cc4ccccc4-c4ccc(Cl)cc4)CC3)cc2)cc1[N+](=O)[O-]` [ABT-737] is lower in inhibition at 10 µM: 77.4% for the first, 63.1% for the second.

Compared with `C[C@@H]([C@@H](O)c1ccc(O)cc1)N1CCC(O)(c2ccccc2)CC1` [CP 101606], `Nc1c2ccccc2nc2ccccc12` [AMINACRINE] is higher in inhibition at 10 µM: 54.3% for the first, 64.1% for the second.

Going from `C[C@]12CC[C@H](O)C[C@H]1CC[C@@H]1[C@@H]2C[C@@H](O)[C@]2(C)[C@@H](C3=CC(=O)OC3)CC[C@]12O` [Digoxigenin] to `C[C@H]1O[C@@H](O[C@H]2[C@@H](O)C[C@H](O[C@H]3[C@@H](O)C[C@H](O[C@H]4CC[C@@]5(C)[C@H](CC[C@@H]6[C@@H]5C[C@@H](O)[C@]5(C)[C@@H](C7=CC(=O)OC7)CC[C@]65O)C4)O[C@@H]3C)O[C@@H]2C)C[C@H](O)[C@@H]1O` [DIGOXIN], the inhibition at 10 µM rises from 66.8% to 70.6%.

Compared with `CCCCCCCCCCCCCCCC[N+](C)(C)CCN(Cc1ccc(OC)cc1)c1ncccn1` [thonzonium bromide], `CCCCCCCCCCCCCCCC[N+](C)(C)Cc1ccccc1` [Benzyldimethylhexadecylammonium chloride hydrate] is lower in inhibition at 10 µM: 76.4% for the first, 57% for the second.

First: CN1C[C@H](CNC(=O)OCc2ccccc2)C[C@@H]2c3cccc4c3c(cn4C)C[C@H]21 [METERGOLINE]
Second: COC(=O)C1=C(C)NC(C)=C(C(=O)O[C@H]2CCN(Cc3ccccc3)C2)[C@H]1c1cccc([N+](=O)[O-])c1 [Barnidipine HCl]
The inhibition at 10 µM of the first is lower: 54.6% for the first, 83.5% for the second.

Compared with `COc1cc(N2CCC(N3CCN(C)CC3)CC2)ccc1Nc1ncnc(Nc2ccccc2S(=O)(=O)C(C)C)n1` [ASP3026], `CN1CCN(c2ccc(C(=O)Nc3n[nH]c4ccc(Cc5cc(F)cc(F)c5)cc34)c(NC3CCOCC3)c2)CC1` [Entrectinib (RXDX-101), Entrectinib] is higher in inhibition at 10 µM: 62.2% for the first, 70% for the second.

First: CCNC(=O)c1noc(-c2cc(C(C)C)c(O)cc2O)c1-c1ccc(CN2CCOCC2)cc1 [Luminespib]
Second: CNC(=O)c1cccc(-c2ccc3c(N4CCOC[C@@H]4C)nc(N4CCOC[C@@H]4C)nc3n2)c1 [Vistusertib (AZD2014), Vistusertib]
The inhibition at 10 µM of the first is lower: 104% for the first, 112% for the second.

Going from `CO[C@H]1C[C@H](O[C@@H]2/C(C)=C/C[C@@H]3C[C@@H](C[C@]4(CC[C@H](C)[C@@H](C5CCCCC5)O4)O3)OC(=O)[C@@H]3C=C(C)/C(=N/O)[C@H]4OC/C(=C\C=C\[C@@H]2C)[C@]43O)O[C@@H](C)[C@@H]1O` [SELAMECTIN] to `CC(C)[C@]12O[C@H]1[C@@H]1O[C@]13[C@]1(O[C@H]1C[C@H]1C4=C(CC[C@@]13C)C(=O)OC4)[C@@H]2O` [Triptolide], the inhibition at 10 µM rises from 68.2% to 90.7%.

Going from `COc1ccc(N(C)c2nc(C)nc3ccccc23)cc1` [verubulin] to `COc1ccc(CCCOC(Cn2ccnc2)c2ccc(OC)cc2)cc1` (stereo not drawn) [SKF-96365], the inhibition at 10 µM rises from 50.9% to 70.3%.

First: CCCn1c(=O)c2[nH]c(-c3ccccc3)nc2n(CCC)c1=O [1,3-dipropyl-8-phenylxanthine]
Second: Cc1ccc(C(=O)N(CCCN)[C@@H](c2nc3cc(Cl)ccc3c(=O)n2Cc2ccccc2)C(C)C)cc1 [Ispinesib (SB-715992), Ispinesib]
The inhibition at 10 µM of the first is lower: 57.2% for the first, 91.9% for the second.

Compared with `CC(=O)OCC(=O)[C@@]1(O)CC[C@H]2[C@@H]3CCC4=CC(=O)C=C[C@]4(C)[C@@]3(F)[C@@H](O)C[C@@]21C` [isoflupredone-acetate], `CC(=O)OCC(=O)[C@@]1(O)CC[C@H]2[C@@H]3CCC4=CC(=O)C=C[C@]4(C)[C@H]3[C@@H](O)C[C@@]21C` [PREDNISOLONE ACETATE] is lower in inhibition at 10 µM: 80.6% for the first, 60% for the second.

`O=C(Cn1ccnc1[N+](=O)[O-])NCCO` [etanidazole] and `O=C(O)CCCO` [SODIUM OXYBATE] are the same in inhibition at 10 µM: 57.3% for the first, 57.3% for the second.

First: O=C1NCCN1CCN1CCC(c2cn(-c3ccc(F)cc3)c3ccc(Cl)cc23)CC1 [sertindole]
Second: O=C(NCc1ccncc1)C12CC3CC(C1)CC(c1ccc(Cl)cc1)(C3)C2 [ABC294640]
The inhibition at 10 µM of the first is higher: 90.3% for the first, 81.4% for the second.

Going from `N#C/C(=C1/SCC(c2ccccc2Cl)S1)n1ccnc1` (stereo not drawn) [Lanoconazole] to `CN(C)CC/C=C1/c2ccccc2Sc2ccc(Cl)cc21` [CHLORPROTHIXENE HYDROCHLORIDE], the inhibition at 10 µM falls from 70.7% to 55.6%.

First: C1CCC(C(CC2CCCCN2)C2CCCCC2)CC1 (stereo not drawn) [PERHEXILINE MALEATE]
Second: Cc1c(O)cccc1C(=O)N[C@@H](CSc1ccccc1)[C@H](O)CN1C[C@H]2CCCC[C@H]2C[C@H]1C(=O)NC(C)(C)C [Nelfinavir Mesylate]
The inhibition at 10 µM of the first is lower: 55.4% for the first, 88.6% for the second.

Going from `CNCCCOc1cc(F)c(-c2c(Cl)nc3ncnn3c2N[C@@H](C)C(F)(F)F)c(F)c1` [Cevipabulin] to `CCC[C@H](Nc1nc(-c2ccc(NC(=O)NCC)c(OC)c2)ncc1C)c1cccnc1` [CYT997], the inhibition at 10 µM rises from 53.6% to 58.6%.

Going from `CS[C@H]1SC[C@H]2C(=O)N(C)[C@@H](C(C)C)C(=O)OC[C@@H](NC(=O)c3cnc4ccccc4n3)C(=O)N[C@@H](C)C(=O)N(C)[C@@H]1C(=O)N(C)[C@@H](C(C)C)C(=O)OC[C@@H](NC(=O)c1cnc3ccccc3n1)C(=O)N[C@@H](C)C(=O)N2C` [Echinomycin] to `C[C@]1(O)C[C@@H](c2nc(-c3ccc4ccc(-c5ccccc5)nc4c3)c3c(N)nccn32)C1` [OSI-906 (Linsitinib), Linsitinib], the inhibition at 10 µM rises from 77.5% to 110%.

Compared with `COc1c(O[C@@H]2O[C@H](CO)[C@@H](O)[C@H](O)[C@H]2O)cc2c(c1OC)-c1ccc(SC)c(=O)cc1[C@@H](NC(C)=O)CC2` [thiocolchicoside], `COC(=O)[C@H]1[C@H]2C[C@@H]3c4[nH]c5cc(OC)ccc5c4CCN3C[C@H]2C[C@@H](OC(=O)c2cc(OC)c(OC)c(OC)c2)[C@@H]1OC` [RESERPINE] is higher in inhibition at 10 µM: 54.2% for the first, 67.8% for the second.

First: CNCC(O)c1ccc(OC(=O)C(C)(C)C)c(OC(=O)C(C)(C)C)c1 (stereo not drawn) [dipivefrine]
Second: COc1ccc(CCNCC(O)COc2cccc(C)c2)cc1OC (stereo not drawn) [Bevantolol HCl]
The inhibition at 10 µM of the first is lower: 54% for the first, 77.1% for the second.

Going from `Cc1cc(N)c2ccccc2[n+]1CCCCCCCCCC[n+]1c(C)cc(N)c2ccccc21` [DEQUALINIUM CHLORIDE] to `c1ccc2c(c1)[I+]c1ccccc1-2` [diphenyleneiodonium], the inhibition at 10 µM falls from 65.6% to 55.5%.

Compared with `Cc1ccc(Oc2ccccc2-c2csc(N=C3NCCCN3)n2)c(C)c1` [Abafungin], `C[C@H]1C[C@H]2[C@@H]3CCC4=CC(=O)C=C[C@]4(C)[C@@]3(F)[C@@H](O)C[C@]2(C)[C@@]1(O)C(=O)CO` [BETAMETHASONE] is lower in inhibition at 10 µM: 92.9% for the first, 50.6% for the second.

Same assay, conditions: Severe acute respiratory syndrome coronavirus 2, Caco-2, 48 h, read-out: pIC50 (converted)

Going from `COC(=O)C1=C(C)NC(C)=C(C(=O)O[C@H]2CCN(Cc3ccccc3)C2)[C@H]1c1cccc([N+](=O)[O-])c1` [Barnidipine HCl] to `Cc1c(O)cccc1C(=O)N[C@@H](CSc1ccccc1)[C@H](O)CN1C[C@H]2CCCC[C@H]2C[C@H]1C(=O)NC(C)(C)C` [Nelfinavir Mesylate], the IC50 falls from 24.5 µM to 2.63 µM (9.3-fold).

Compared with `O=C(NCc1ccncc1)C12CC3CC(C1)CC(c1ccc(Cl)cc1)(C3)C2` [ABC294640], `C[C@]1(O)C[C@@H](c2nc(-c3ccc4ccc(-c5ccccc5)nc4c3)c3c(N)nccn32)C1` [OSI-906 (Linsitinib), Linsitinib] is 1.5-fold lower in IC50: 38 µM for the first, 25.1 µM for the second.
